According to US20230219904A1 (SYNGENTA CROP PROTECTION AG, priority 2020, published 2023):

Experiments:
Format in all cases: in vivo
Conditions in all cases: evaluated after 13 days
Setaria faberi (SETFA) [1] = assay: Post-emergence herbicidal glasshouse test (Table B1)
Outline: (§1)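 Spraying at 500 g/h unless indicated occurs either one day after sowing (pre-emergence) or after 8 days of cultivation (post-emergence). Percentage damage is then assessed after 13 days and binned as 5=80-100%, 4=60-79%, 3=40-59%, 2=20-39%, 1=0-19%.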

[2] = test system: Ipomoea hederacea (IPOHE); assay: as above
Outline: as §1

[3] = test system: Echinochloa crus-galh (ECHCG); assay: as above
Outline: as §1

[4] = test system: Abutilon theophrasti (ABUTH); assay: as above
Outline: as §1

[5] = test system: Amaranthus retoflexus (AMARE); assay: as above
Outline: as §1

Setaria faberi (SETFA) [6] = assay: Pre-emergence herbicidal glasshouse test (Table B1)
Outline: as §1

[7] = test system: Ipomoea hederacea (IPOHE); assay: as above
Outline: as §1

[8] = test system: Echinochloa crus-galh (ECHCG); assay: as above
Outline: as §1

[9] = test system: Abutilon theophrasti (ABUTH); assay: as above
Outline: as §1

[10] = test system: Amaranthus retoflexus (AMARE); assay: as above
Outline: as §1

SMILES | POST Application SETFA, percentage damage on five-point scale (Setaria faberi (SETFA) [1]; applied at 500 g/h) | POST Application IPOHE, percentage damage on five-point scale ([2]; applied at 500 g/h) | POST Application ECHCG, percentage damage on five-point scale ([3]; applied at 500 g/h) | POST Application ABUTH, percentage damage on five-point scale ([4]; applied at 500 g/h) | POST Application AMARE, percentage damage on five-point scale ([5]; applied at 500 g/h) | PRE Application SETFA, percentage damage on five-point scale (Setaria faberi (SETFA) [6]; applied at 500 g/h) | PRE Application IPOHE, percentage damage on five-point scale ([7]; applied) | PRE Application ECHCG, percentage damage on five-point scale ([8]; applied at 500 g/h) | PRE Application ABUTH, percentage damage on five-point scale ([9]; applied at 500 g/h) | PRE Application AMARE, percentage damage on five-point scale ([10]; applied at 500 g/h) | POST Application SETFA, percentage damage on five-point scale (Setaria faberi (SETFA) [1]; applied at 125 g/ha) | POST Application IPOHE, percentage damage on five-point scale ([2]; applied at 125 g/ha) | POST Application ECHCG, percentage damage on five-point scale ([3]; applied at 125 g/ha) | POST Application ABUTH, percentage damage on five-point scale ([4]; applied at 125 g/ha) | POST Application AMARE, percentage damage on five-point scale ([5]; applied at 125 g/ha) | PRE Application SETFA, percentage damage on five-point scale (Setaria faberi (SETFA) [6]; applied at 125 g/ha) | PRE Application IPOHE, percentage damage on five-point scale ([7]; applied at 125 g/ha) | PRE Application ECHCG, percentage damage on five-point scale ([8]; applied at 125 g/ha) | PRE Application ABUTH, percentage damage on five-point scale ([9]; applied at 125 g/ha) | PRE Application AMARE, percentage damage on five-point scale ([10]; applied at 125 g/ha)
Cn1nnnc1NC(=O)c1ccc(OC(F)(F)F)c(NC(=O)C2CC2(F)F)c1Cl (stereo not drawn) [Compound 1.032] | 5 (5=80-100%) | 5 (5=80-100%) | 5 (5=80-100%) | 5 (5=80-100%) | 5 (5=80-100%) | 5 (5=80-100%) | 3 (3=40-59%) | 5 (5=80-100%) | 5 (5=80-100%) | 5 (5=80-100%) | – | – | – | – | – | – | – | – | – | –
CC(=O)Nc1c(OCC(F)(F)F)ccc(C(=O)Nc2nnnn2C)c1Cl [Compound 1.018, 3-acetamido-2-chloro-N-(1-methyltetrazol-5-yl)-4-(2,2,2-trifluoroethoxy)benzamide] | 5 (5=80-100%) | 4 (4=60-79%) | 5 (5=80-100%) | 5 (5=80-100%) | 5 (5=80-100%) | 3 (3=40-59%) | 3 (3=40-59%) | 3 (3=40-59%) | 4 (4=60-79%) | 5 (5=80-100%) | – | – | – | – | – | – | – | – | – | –
CCn1nnnc1NC(=O)c1ccc(OC(F)(F)F)c(NC(C)=O)c1Cl [Compound 1.015] | 5 (5=80-100%) | 5 (5=80-100%) | 5 (5=80-100%) | 5 (5=80-100%) | 5 (5=80-100%) | 2 (2=20-39%) | 1 (1=0-19%) | 4 (4=60-79%) | 5 (5=80-100%) | 5 (5=80-100%) | – | – | – | – | – | – | – | – | – | –
CN(C(=O)CC1CC1)c1c(OC(F)F)ccc(C(=O)Nc2nnnn2C)c1Cl [Compound 1.037] | – | – | – | – | – | – | – | – | – | – | 5 (5=80-100%) | 4 (4=60-79%) | 5 (5=80-100%) | 5 (5=80-100%) | 5 (5=80-100%) | 4 (4=60-79%) | 4 (4=60-79%) | 5 (5=80-100%) | 5 (5=80-100%) | 5 (5=80-100%)
CCn1nnnc1NC(=O)c1ccc(OC(F)(F)F)c(NC(=O)CCOC)c1Cl [Compound 1.113] | 5 (5=80-100%) | 5 (5=80-100%) | 5 (5=80-100%) | 5 (5=80-100%) | 5 (5=80-100%) | 2 (2=20-39%) | 1 (1=0-19%) | 5 (5=80-100%) | 5 (5=80-100%) | 5 (5=80-100%) | – | – | – | – | – | – | – | – | – | –
CC(F)C(=O)Nc1c(OC(F)(F)F)ccc(C(=O)Nc2nnnn2C)c1Cl (stereo not drawn) [Compound 1.009] | 5 (5=80-100%) | 5 (5=80-100%) | 5 (5=80-100%) | 5 (5=80-100%) | 5 (5=80-100%) | 5 (5=80-100%) | 4 (4=60-79%) | 1 (1=0-19%) | 5 (5=80-100%) | 5 (5=80-100%) | – | – | – | – | – | – | – | – | – | –
